Data reported in US8324245B2, “Quinoline derivative and quinazoline derivative inhibiting self-phosphorylation of hepatocytus proliferator receptor, and medicinal composition containing the same” (Kyowa Hakko Kirin Co., Ltd., priority 2001, dated 2012).

Biological target: T1, met (HGF receptor) in human gastric cancer cells MKN45 (Homo sapiens, UniProt P08581)
T1 construct: endogenous in cells; host or cells: MKN45 human gastric cancer cells
Test: Inhibitory activity against met-autophosphorylation using ELISA method (2), MKN45 cells, HGF-independent
Type: cell-based
Procedure: Cells were cultured with RPMI medium containing 0.1% fetal calf serum in 96-well flat-bottom plate in an amount of 3×10^4 per well, and were incubated at 37° C. overnight. The medium was then replaced by a fresh RPMI medium containing 0.1% fetal calf serum. A solution of the test compound in dimethyl sulfoxide was added to each well, and the incuvation was continued at 37° C. for additional one hr. The medium was removed, the cells were washed with phosphate buffered saline (pH 7.4), and 50 μl of a lysis buffer (20 mM HEPES (pH 7.4), 150 mM NaCl, 0.2% Triton X-100, 10% glycerol, 5 mM sodium orthovanadylate, 5 mM disodium ethylenediaminetetraacetate, and 2 mM Na4P2O7) was then added thereto. The mixture was shaken at 4° C. for 2 hr to prepare a cell extract.
Separately, phosphate buffered saline (50 μl, pH 7.4) containing 5 μg/ml of anti-phospho-tyrosine antibody (PY20; purchased from Transduction Laboratories) was added to a microplate for ELISA (Maxisorp; purchased from NUNC), followed by gentle agitation at 4° C. overnight to coat the surface of the wells with the antibody. After washing of the plate, 300 μl of a blocking solution was added, followed by gentle agitation at room temperature for 2 hr to perform blocking. After washing, the whole quantity of the cell extract was transferred to the wells, and the plate was then allowed to stand at 4° C. overnight. After washing, an anti-HGF receptor antibody (h-Met (C-12), purchased from Santa Cruz Biotechnology) was allowed to react at room temperature for one hr, and, after washing, a peroxidase-labeled anti-rabbit Ig antibody (purchased from Amersham) was allowed to react at room temperature for one hr. After washing, a chromophoric substrate for peroxidase (purchased from Sumitomo Bakelite Co., Ltd.) was added thereto to initiate a reaction. After a suitable level of color development, a reaction termination solution was added to stop the reaction, and the absorbance at 450 nm was measured with a microplate reader.

T1 sequence (P08581 25-1390): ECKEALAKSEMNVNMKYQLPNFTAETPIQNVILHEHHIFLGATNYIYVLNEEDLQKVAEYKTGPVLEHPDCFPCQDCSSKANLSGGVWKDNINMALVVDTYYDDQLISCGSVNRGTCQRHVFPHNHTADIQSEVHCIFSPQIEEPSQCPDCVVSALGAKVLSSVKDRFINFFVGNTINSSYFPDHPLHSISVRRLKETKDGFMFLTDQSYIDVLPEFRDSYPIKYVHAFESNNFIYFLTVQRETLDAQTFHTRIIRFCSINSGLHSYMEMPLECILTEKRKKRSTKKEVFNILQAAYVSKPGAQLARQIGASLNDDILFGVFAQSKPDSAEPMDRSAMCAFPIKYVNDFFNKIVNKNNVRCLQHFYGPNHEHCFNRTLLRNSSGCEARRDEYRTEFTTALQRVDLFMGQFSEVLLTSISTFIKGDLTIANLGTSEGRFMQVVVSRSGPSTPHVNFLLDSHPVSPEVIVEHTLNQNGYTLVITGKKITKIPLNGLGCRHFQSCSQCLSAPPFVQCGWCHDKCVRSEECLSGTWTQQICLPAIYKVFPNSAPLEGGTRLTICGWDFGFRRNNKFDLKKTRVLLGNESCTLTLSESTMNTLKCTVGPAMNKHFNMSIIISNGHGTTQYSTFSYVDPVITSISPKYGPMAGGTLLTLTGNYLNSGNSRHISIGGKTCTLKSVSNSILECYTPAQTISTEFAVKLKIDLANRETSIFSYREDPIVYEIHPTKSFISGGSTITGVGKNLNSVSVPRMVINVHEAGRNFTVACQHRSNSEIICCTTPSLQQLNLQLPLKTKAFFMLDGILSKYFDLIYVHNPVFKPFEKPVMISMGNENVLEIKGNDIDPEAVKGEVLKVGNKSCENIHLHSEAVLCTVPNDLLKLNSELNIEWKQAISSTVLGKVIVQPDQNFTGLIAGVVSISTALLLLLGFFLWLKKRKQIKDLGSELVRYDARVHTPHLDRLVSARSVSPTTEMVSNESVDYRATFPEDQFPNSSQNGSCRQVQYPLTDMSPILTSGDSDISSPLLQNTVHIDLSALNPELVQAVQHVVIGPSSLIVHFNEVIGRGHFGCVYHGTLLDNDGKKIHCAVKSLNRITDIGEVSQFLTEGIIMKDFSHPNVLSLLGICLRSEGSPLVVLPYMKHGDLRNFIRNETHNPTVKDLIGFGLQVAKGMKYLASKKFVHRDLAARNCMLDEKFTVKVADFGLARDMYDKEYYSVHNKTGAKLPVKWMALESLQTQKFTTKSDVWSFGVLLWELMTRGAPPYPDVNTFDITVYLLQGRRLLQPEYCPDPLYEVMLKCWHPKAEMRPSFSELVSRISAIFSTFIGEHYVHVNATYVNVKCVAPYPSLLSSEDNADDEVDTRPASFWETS

## COc1cc2nccc(Oc3ccc(NC(=O)NC(=O)Cc4cc(F)ccc4F)c(F)c3)c2cc1OC [Example 132]
  IC50: 268 nM

## COc1cc2nccc(Oc3ccc(NC(=S)NC(=O)CCCC(C)C)c(F)c3)c2cc1OC [Example 178, 1-[4-(6,7-dimethoxyquinolin-4-yloxy)-2-fluorophenyl]-3-(5-methyl-hexanoyl)thiourea]
  IC50: 268 nM

## COc1cc2nccc(Oc3ccc(NC(=O)CC(=O)Nc4ccc(F)cc4F)cc3F)c2cc1OC [Example 99, N-(2,4-difluorophenyl)-N′-[4-(6,7-dimethoxy-quinolin-4-yloxy)-3-fluorophenyl]malonamide]
  IC50: 25.6 nM

## CCN(CC)CCOc1cc2nccc(Oc3ccc(NC(=S)NC(=O)Cc4ccc(F)cc4)cc3F)c2cc1OC [Example 275, 1-{4-[7-(2-Diethylamino-ethoxy)-6-methoxy-quinolin-4-yloxy]-3-fluoro-phenyl}-3-[2-(4-fluoro-phenyl)-acetyl]-thiourea]
  IC50: 23 nM

## COc1cc2c(Oc3ccc(NC(=O)NC(=O)Cc4ccccc4)cc3F)ccnc2cc1O [Example 106, N-{3-Fluoro-4-[(7-hydroxy-6-methoxy-4-quinolyl)-oxy]phenyl}-N′-(2-phenylacetyl)urea]
  IC50: 42.7 nM

## COc1cc2nccc(Oc3ccc(NC(=O)NC(=O)Cc4ccc(F)cc4)cc3Cl)c2cc1OC [Example 24, 1-[3-chloro-4-(6,7-dimethoxyquinolin-4-yloxy)phenyl]-3-[2-(4-fluorophenyl)acetyl]urea]
  IC50: 27.7 nM

## COc1cc2nccc(Oc3ccc(NC(=S)NC(=O)CCCC(C)C)cc3)c2cc1OC [Example 177, 1-[4-(6,7-dimethoxyquinolin-4-yloxy)phenyl]-3-(5-methyl-hexanoyl)thiourea]
  IC50: 267 nM

## COc1cc2nccc(Oc3ccc(NC(=S)NC(=O)Cc4cccc(F)c4)cc3F)c2cc1OC [Example 75, 1-[4-(6,7-dimethoxyquinolin-4-yloxy)-3-fluoro-phenyl]-3-[2-(3-fluorophenyl)acetyl]thiourea]
  IC50: 33.6 nM

## COc1cc2nccc(Oc3ccc(NC(=O)NC(=O)Cn4ccnn4)cc3Cl)c2cc1OC [Example 123, 1-[3-chloro-4-(6,7-dimethoxyquinolin-4-yloxy)phenyl]-3-(2-[1,2,3]triazol-1-ylacetyl)urea]
  IC50: 2010 nM

## COc1cc2nccc(Oc3ccc(NC(=S)NC(=O)Cc4ccccc4Cl)c(F)c3)c2cc1OC [Example 182, 1-[2-(2-chlorophenyl)acetyl]-3-[4-(6,7-dimethoxyquinolin-4-yloxy)-2-fluorophenyl]thiourea]
  IC50: 256 nM

## COc1cc2nccc(Oc3ccc(NC(=O)NC(=O)Cc4ccccc4C(F)(F)F)c(F)c3)c2cc1OC [Example 136, 1-[4-(6,7-dimethoxyquinolin-4-yloxy)-2-fluorophenyl]-3-[2-(2-trifluoromethylphenyl)acetyl]urea]
  IC50: 342 nM

## COc1cc2nccc(Oc3ccc(NC(=O)NC(=O)Nc4ccccc4F)cc3)c2cc1OC [Example 252, N-(2-fluorophenyl)-({[4-(6,7-dimethoxy-quinolin-4-yloxy)anilino]carbonyl}amino)methanamide]
  IC50: 301 nM

## COc1cc2nccc(Oc3ccc(NC(=S)NC(=O)c4ccccc4Br)cc3F)c2cc1OC [Example 146, 1-(2-bromobenzoyl)-3-[4-(6,7-dimethoxy-quinolin-4-yloxy)-3-fluorophenyl]thiourea]
  IC50: 1210 nM

## COc1cc2c(Oc3ccc(NC(=O)NC(=O)Cc4ccccc4)cc3F)ccnc2cc1OCCN1CCCCC1 [Example 13, 1-{3-fluoro-4-[6-methoxy-7-(2-piperidin-1-yl-ethoxy)quinolin-4-yloxy]phenyl}-3-phenylacetylurea]
  IC50: 141 nM

## COc1cc2nccc(Oc3ccc(NC(=S)NC(=O)Cc4ccccc4F)c(F)c3)c2cc1OC [Example 80, 1-[4-(6,7-dimethoxyquinolin-4-yloxy)-2-fluoro-phenyl]-3-[2-(2-fluorophenyl)acetyl]thiourea]
  IC50: 30.2 nM

## COc1cc2nccc(Oc3ccc(NC(=S)NC(=O)Cc4c(F)ccc(F)c4F)cc3F)c2cc1OC [Example 206, 1-[4-(6,7-dimethoxyquinolin-4-yloxy)-3-fluorophenyl]-3-[2-(2,3,6-trifluorophenyl)acetyl]-thiourea]
  IC50: 444 nM

## COc1ccccc1NC(=O)CC(=O)Nc1ccc(Oc2ccnc3cc(OC)c(OC)cc23)cc1 [Example 211, N-[4-(6,7-dimethoxyquinolin-4-yloxy)phenyl]-N′-(2-methoxyphenyl)malonamide]
  IC50: 252 nM

## COc1cc2nccc(Oc3ccc(NC(=O)NC(=O)CSC4CCCC4)cc3)c2cc1OC [Example 7, 1-(2-cyclopentylsulfanylacetyl)-3-[4-(6,7-dimethoxyquinolin-4-yloxy)phenyl]urea]
  IC50: 292 nM

## COc1cc2nccc(Oc3ccc(NC(=S)NC(=O)Cc4ccccc4C)c(F)c3)c2cc1OC [Example 170, 1-[4-(6,7-dimethoxyquinolin-4-yloxy)-2-fluorophenyl]-3-(2-o-tolylacetyl)thiourea]
  IC50: 274 nM

## COc1cc2nccc(Oc3ccc(NC(=S)NC(=O)Cc4ccccc4C)cc3F)c2cc1OC [Example 84, 1-[4-(6,7-dimethoxyquinolin-4-yloxy)-3-fluorophenyl]-3-(2-o-tolylacetyl)thiourea]
  IC50: 40 nM

## COc1cc2c(Oc3ccc(NC(=O)NC(=O)Cc4ccccc4)cc3F)ccnc2cc1OCCCN1CCN(C)CC1 [Example 53, 1-(3-fluoro-4-{6-methoxy-7-[3-(4-methyl-piperazin-1-yl)-propoxy]quinolin-4-yloxy}phenyl)-3-phenylacetylurea]
  IC50: 37.4 nM

## COc1cc2nccc(Oc3ccc(NC(=O)NC(=O)Nc4cccc(C#N)c4)cc3)c2cc1OC [Example 239, N-(3-cyanophenyl)-({[4-(6,7-dimethoxy-quinolin-4-yloxy)anilino]carbonyl}amino)-methanamide]
  IC50: 1580 nM

## COc1cc2nccc(Oc3ccc(NC(=O)CC(=O)NCc4ccccc4)cc3)c2cc1OC [Example 215, N-benzyl-N′-[4-(6,7-dimethoxyquinolin-4-yloxy)phenyl]malonamide]
  IC50: 1980 nM

## COc1cc2nccc(Oc3ccc(NC(=O)C(C)(C)C(=O)Nc4ccccc4)cc3)c2cc1OC [Example 228, N-[4-(6,7-dimethoxyquinolin-4-yloxy)phenyl]-2,2-dimethyl-N′-phenylmalonamide]
  IC50: 394 nM

## COc1cc2nccc(Oc3ccc(NC(=O)NC(=O)Cc4ccccc4C(F)(F)F)cc3F)c2cc1OC [Example 137, 1-[4-(6,7-dimethoxyquinolin-4-yloxy)-3-fluorophenyl]-3-[2-(2-trifluoromethylphenyl)acetyl]urea]
  IC50: 271 nM

## COc1cc2c(Oc3ccc(NC(=O)NC(=O)Cc4ccc(F)cc4)cc3F)ccnc2cc1OCCCCN1CCCCC1 [Example 42, 1-{3-fluoro-4-[6-methoxy-7-(4-piperidine-1-yl-butoxy)quinolin-4-yloxy]phenyl}-3-[2-(4-fluorophenyl)-acetyl]urea]
  IC50: 190 nM

## COc1cc2nccc(Oc3ccc(NC(=S)NC(=O)Cc4ccccc4C)cc3Cl)c2cc1OC [Example 149, 1-[3-chloro-4-(6,7-dimethoxyquinolin-4-yloxy)phenyl]-3-(2-o-tolylacetyl)thiourea]
  IC50: 236 nM

## COc1cc2nccc(Oc3ccc(NC(=S)NC(=O)Cc4c(Cl)cccc4Cl)cc3F)c2cc1OC [Example 97, 1-[2-(2,6-dichlorophenyl)acetyl]-3-[4-(6,7-dimethoxyquinolin-4-yloxy)-3-fluorophenyl]thiourea]
  IC50: 37.6 nM

## COc1cc2nccc(Oc3ccc(NC(=O)NC(=O)CC4C5CCC4CC5)cc3Cl)c2cc1OC (stereo not shown) [Example 128, 1-(2-bicyclo[2.2.1]hepto-7-ylacetyl)-3-[3-chloro-4-(6,7-dimethoxyquinolin-4-yloxy)phenyl]urea]
  IC50: 285 nM

## COc1cc2c(Oc3ccc(NC(=S)NC(=O)Cc4ccc(Cl)cc4)cc3F)ccnc2cc1OCC(O)CN1CCCCC1 (stereo not shown) [Example 327, 1-[2-(4-Chloro-phenyl)-acetyl]-3-{3-fluoro-4-[7-(2-hydroxy-3-piperidin-1-yl-propoxy)-6-methoxy-quinolin-4-yloxy]-phenyl}-thiourea]
  IC50: 798 nM

## COc1cc2nccc(Oc3ccc(NC(=S)NC(=O)CC4CCC(C)CC4)c(F)c3)c2cc1OC (stereo not shown) [Example 191, 1-[4-(6,7-dimethoxyquinolin-4-yloxy)-2-fluorophenyl]-3-[2-(4-methyl-cyclohexyl)acetyl]thiourea]
  IC50: 977 nM

## COc1cc2nccc(Oc3ccc(NC(=O)C(C)C(=O)NC4CCCCC4)cc3)c2cc1OC (stereo not shown) [Example 226, N-cyclohexyl-N′-[4-(6,7-dimethoxyquinolin-4-yloxy)phenyl]-2-methylmalonamide]
  IC50: 3230 nM

## COc1cc2nccc(Oc3ccc(NC(=S)NC(=O)COc4ccccc4)cc3Cl)c2cc1OC [Example 157, 1-[3-chloro-4-(6,7-dimethoxyquinolin-4-yloxy)phenyl]-3-(2-phenoxyacetyl)thiourea]
  IC50: 482 nM

## COc1cc2c(Oc3ccc(NC(=S)NC(=O)Cc4ccc(C)cc4)cc3F)ccnc2cc1OCC(O)CN1CCOCC1 (stereo not shown) [Example 335]
  IC50: 23.6 nM
